Columns and labels:
Details in all cases: averaged IC50
[1] = molecular target: His-tagged recombinant human MER cytoplasmic domain (Homo sapiens (Human), UniProt Q12866); assay: MER Enzyme Assay (LanthaScreen Eu Kinase Binding, TR-FRET)
Method in brief: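 Percent of control, derived from ratiometric TR-FRET emission, was fitted to a 4-parameter logistic curve and IC50 taken at 50 POC. Binding was read after 60 min at 22 °C using Eu-based LanthaScreen technology and recombinant His-tagged MER cytoplasmic domain.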

[2] = molecular target: His-tagged recombinant human AXL cytoplasmic domain (Homo sapiens (Human), UniProt P30530); assay: AXL Enzyme Assay (LanthaScreen Eu Kinase Binding, TR-FRET)
His-tagged recombinant human AXL cytoplasmic domain, sequence (P30530 473-894): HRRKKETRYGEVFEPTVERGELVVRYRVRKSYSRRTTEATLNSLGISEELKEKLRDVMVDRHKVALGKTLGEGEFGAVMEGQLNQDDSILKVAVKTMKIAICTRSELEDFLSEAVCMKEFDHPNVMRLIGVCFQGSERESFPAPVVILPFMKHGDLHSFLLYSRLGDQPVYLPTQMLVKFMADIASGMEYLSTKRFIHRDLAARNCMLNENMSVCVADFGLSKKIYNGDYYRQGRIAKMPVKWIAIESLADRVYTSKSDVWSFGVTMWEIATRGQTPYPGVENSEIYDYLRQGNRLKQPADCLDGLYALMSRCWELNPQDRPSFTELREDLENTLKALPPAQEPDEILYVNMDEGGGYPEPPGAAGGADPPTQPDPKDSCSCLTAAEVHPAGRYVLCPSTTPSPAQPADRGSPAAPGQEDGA
Method in brief: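 Compound displacement measured by TR-FRET after 60 min at 22 °C, using Eu-based LanthaScreen binding technology. Ratiometric emission converted to percent of control, fitted to a 4-parameter logistic curve, with IC50 at 50 POC.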

[3] = molecular target: GST-tagged recombinant human TYRO3 kinase domain (Homo sapiens (Human), UniProt Q06418); assay: TYRO3 Enzyme Assay (LanthaScreen Eu Kinase Binding, TR-FRET)
GST-tagged recombinant human TYRO3 kinase domain, sequence (Q06418 518-790): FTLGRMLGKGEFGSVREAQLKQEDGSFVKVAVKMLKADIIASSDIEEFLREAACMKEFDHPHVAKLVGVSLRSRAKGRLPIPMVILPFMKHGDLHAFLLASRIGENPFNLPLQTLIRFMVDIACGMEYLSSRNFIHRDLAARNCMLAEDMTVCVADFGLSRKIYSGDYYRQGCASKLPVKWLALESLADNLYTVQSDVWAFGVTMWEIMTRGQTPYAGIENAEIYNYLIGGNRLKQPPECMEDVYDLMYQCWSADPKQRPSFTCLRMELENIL
Method in brief: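 LanthaScreen Eu binding (tracer displacement) format read by TR-FRET after 60 min at 22 °C. Emission ratio converted to percent of control; IC50 taken where a 4-parameter logistic fit crosses 50 POC.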

His-tagged recombinant human MER cytoplasmic domain, sequence (Q12866 527-999): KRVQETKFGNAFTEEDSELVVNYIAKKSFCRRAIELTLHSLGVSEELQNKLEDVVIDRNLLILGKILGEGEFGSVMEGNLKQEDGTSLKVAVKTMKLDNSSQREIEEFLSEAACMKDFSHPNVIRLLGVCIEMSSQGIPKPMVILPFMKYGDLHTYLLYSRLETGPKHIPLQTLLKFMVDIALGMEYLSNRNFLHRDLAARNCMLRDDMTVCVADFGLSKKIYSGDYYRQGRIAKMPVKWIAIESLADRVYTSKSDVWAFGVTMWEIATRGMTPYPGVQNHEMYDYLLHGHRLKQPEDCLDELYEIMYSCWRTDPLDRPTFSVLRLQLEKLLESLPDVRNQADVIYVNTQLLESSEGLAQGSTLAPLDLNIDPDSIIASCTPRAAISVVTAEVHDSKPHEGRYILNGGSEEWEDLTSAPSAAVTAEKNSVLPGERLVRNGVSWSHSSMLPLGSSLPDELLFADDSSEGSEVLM

CCNc1cc2c(cn1)c(N1CCNCC1)nn2[C@H]1CC[C@@H](Oc2nccc(C(F)(F)F)c2F)CC1 [Example 343, N-ethyl-1-((1s,4s)-4((3-fluoro-4-(trifluoromethyl)pyridin-2-yl)oxy)cyclohexyl)-3-(piperazin-1-yl)-1H-pyrazolo[4,3-c]pyridin-6-amine]
IC50 [1]: < 10 nM | IC50 [2]: < 10 nM | IC50 [3]: < 10 nM

CCNc1cc2c(cn1)c(N1CCC(NC)CC1)nn2[C@H]1CC[C@@H](Oc2nccc(C(F)(F)F)c2F)CC1 [Example 344, N-ethyl-1-((1s,4s)-4((3-fluoro-4-(trifluoromethyl)pyridin-2-yl)oxy)cyclohexyl)-3-(4-(methylamino)piperidin-1-yl)-1H-pyrazolo[4,3-c]pyridin-6-amine]
IC50 [1]: < 10 nM | IC50 [2]: < 10 nM | IC50 [3]: 10 to 100 nM

CCNc1cc2c(cn1)c(N1CCC(N(C)C)CC1)nn2[C@H]1CC[C@@H](Oc2nccc(C(F)(F)F)c2F)CC1 [Example 345, 3-(4-(dimethylamino)piperidin-1-yl)-N-ethyl-1-((1s,4s)-4-((3-fluoro-4-(trifluoromethyl)pyridin-2-yl)oxy)cyclohexyl)-1H-pyrazolo[4,3-c]pyridin-6-amine]
IC50 [1]: < 10 nM | IC50 [2]: < 10 nM | IC50 [3]: 10 to 100 nM

CCNc1cc2c(cn1)c(-c1cnn(C)c1)nn2[C@H]1CC[C@@H](Oc2nccc(C)c2F)CC1 [Example 346, N-ethyl-1-((1s,4s)-4-((3-fluoro-4-methylpyridin-2-yl)oxy)cyclohexyl)-3-(1-methyl-1H-pyrazol-4-yl)-1H-pyrazolo[4,3-c]pyridin-6-amine]
IC50 [1]: < 10 nM | IC50 [2]: < 10 nM | IC50 [3]: 10 to 100 nM

CCNc1cc2c(cn1)c(-c1cnn(C)c1)nn2[C@H]1CC[C@@H](Oc2nccc(N(C)C)c2F)CC1 [Example 349, 1-((1s,4s)-4-((4-(dimethylamino)-3-fluoropyridin-2-yl)oxy)cyclohexyl)-N-ethyl-3-(1-methyl-1H-pyrazol-4-yl)-1H-pyrazolo[4,3-c]pyridin-6-amine]
IC50 [1]: < 10 nM | IC50 [2]: < 10 nM | IC50 [3]: 100 to 1000 nM

CCNc1cc2c(cn1)c(-c1cnn(C)c1)nn2[C@H]1CC[C@@H](Oc2nccc(C(F)(F)F)c2N(C)C)CC1 [Example 350, 1-((1s,4s)-4-((3-(dimethylamino)-4-(trifluoromethyl)pyridin-2-yl)oxy)cyclohexyl)-N-ethyl-3-(1-methyl-1H-pyrazol-4-yl)-1H-pyrazolo[4,3-c]pyridin-6-amine]
IC50 [1]: < 10 nM | IC50 [2]: < 10 nM | IC50 [3]: 10 to 100 nM

CCNc1cc2c(cn1)c([C@H]1CC[C@@H](N(C)C)CC1)nn2[C@H]1CC[C@@H](Oc2nccc(C(F)(F)F)c2F)CC1 [Example 351, 3-((1s,4S)-4-(dimethylamino)cyclohexyl)-N-ethyl-1-((1s,4S)-4-((3-fluoro-4-(trifluoromethyl)pyridin-2-yl)oxy)cyclohexyl)-1H-pyrazolo[4,3-c]pyridin-6-amine]
IC50 [1]: < 10 nM | IC50 [2]: < 10 nM | IC50 [3]: < 10 nM

CCNc1cc2c(cn1)c(-c1cnn(C)c1)nn2[C@H]1CC[C@@H](Oc2nccc(C#N)c2F)CC1 [Example 352, 2-(((1s,4s)-4-(6-(ethylamino)-3-(1-methyl-1H-pyrazol-4-yl)-1H-pyrazolo[4,3-c]pyridin-1-yl)cyclohexyl)oxy)-3-fluoroisonicotinonitrile]
IC50 [1]: < 10 nM | IC50 [2]: < 10 nM | IC50 [3]: 10 to 100 nM

CNc1cc2c(cn1)c(-c1cnn(C(C)(C)C#N)c1)nn2[C@H]1CC[C@@H](Oc2cccc(F)c2F)CC1 [Example 369, 2-(4-(1-((1s,4s)-4-(2,3-difluorophenoxy)cyclohexyl)-6-(methylamino)-1H-pyrazolo[4,3-c]pyridin-3-yl)-1H-pyrazol-1-yl)-2-methylpropanenitrile]
IC50 [1]: < 10 nM | IC50 [2]: < 10 nM | IC50 [3]: 10 to 100 nM

CCNc1cc2c(cn1)c(-c1cnn(C)c1)nn2[C@H]1CC[C@@H](Oc2cccc(F)c2F)CC1 [Example 374, 1-((1s,4s)-4-(2,3-difluorophenoxy)cyclohexyl)-N-ethyl-3-(1-methyl-1H-pyrazol-4-yl)-1H-pyrazolo[4,3-c]pyridin-6-amine]
IC50 [1]: < 10 nM | IC50 [2]: < 10 nM | IC50 [3]: 10 to 100 nM

CNc1cc2c(cn1)c(-c1cnn(C)c1)nn2[C@H]1CC[C@@H](Oc2ccccc2S(C)(=O)=O)CC1 [Example 375, N-methyl-3-(1-methyl-1H-pyrazol-4-yl)-1-((1s,4s)-4-(2-(methylsulfonyl)phenoxy)cyclohexyl)-1H-pyrazolo[4,3-c]pyridin-6-amine]
IC50 [1]: < 10 nM | IC50 [2]: < 10 nM | IC50 [3]: 10 to 100 nM

CNc1cc2c(cn1)c(-c1cnn(C)c1)nn2[C@H]1CC[C@@H](Oc2cccc3ncccc23)CC1 [Example 377, N-methyl-3-(1-methyl-1H-pyrazol-4-yl)-1-((1s,4s)-4-(quinolin-5-yloxy)cyclohexyl)-1H-pyrazolo[4,3-c]pyridin-6-amine]
IC50 [1]: < 10 nM | IC50 [2]: < 10 nM | IC50 [3]: < 10 nM

CCNc1cc2c(cn1)c(-c1cnn(C)c1)nn2[C@H]1CC[C@@H](Oc2cccc(C#N)c2)CC1 [Example 378, 3-(((1s,4s)-4-(6-(ethylamino)-3-(1-methyl-1H-pyrazol-4-yl)-1H-pyrazolo[4,3-c]pyridin-1-yl)cyclohexyl)oxy)benzonitrile]
IC50 [1]: < 10 nM | IC50 [2]: < 10 nM | IC50 [3]: 10 to 100 nM

CCNc1cc2c(cn1)c(-c1cnn(C)c1)nn2[C@H]1CC[C@@H](Oc2cccc(C#N)c2C)CC1 [Example 382, 3-(((1s,4s)-4-(6-(ethylamino)-3-(1-methyl-1H-pyrazol-4-yl)-1H-pyrazolo[4,3-c]pyridin-1-yl)cyclohexyl)oxy)-2-methylbenzonitrile]
IC50 [1]: < 10 nM | IC50 [2]: < 10 nM | IC50 [3]: < 10 nM

CNc1cc2c(cn1)c(-c1cnn(C)c1)nn2[C@H]1CC[C@@H](Oc2cccc3ncc(F)cc23)CC1 [Example 384, 1-((1,4s)-4-((3-fluoroquinolin-5-yl)oxy)cyclohexyl)-N-methyl-3-(1-methyl-1H-pyrazol-4-yl)-1H-pyrazolo[4,3-c]pyridin-6-amine]
IC50 [1]: < 10 nM | IC50 [2]: < 10 nM | IC50 [3]: < 10 nM

CNC(=O)c1ccc(O[C@H]2CC[C@@H](n3nc(-c4cnn(C)c4)c4cnc(NC)cc43)CC2)c(C(F)(F)F)c1 [Example 393, N-methyl-4-(((1s,4s)-4-(3-(1-methyl-1H-pyrazol-4-yl)-6-(methylamino)-1H-pyrazolo[4,3-c]pyridin-1-yl)cyclohexyl)oxy)-3-(trifluoromethyl)benzamide]
IC50 [1]: < 10 nM | IC50 [2]: < 10 nM | IC50 [3]: 10 to 100 nM

CNc1cc2c(cn1)c(-c1cnn(C(C)(C)CO)c1)nn2[C@H]1CC[C@@H](Oc2ccccc2F)CC1 [Example 395, 2-(4-(1-((1s,4s)-4-(2-fluorophenoxy)cyclohexyl)-6-(methylamino)-1H-pyrazolo[4,3-c]pyridin-3-yl)-1H-pyrazol-1-yl)-2-methylpropan-1-ol]
IC50 [1]: < 10 nM | IC50 [2]: < 10 nM | IC50 [3]: 10 to 100 nM

CNc1cc2c(cn1)c(-c1cnn(CC(C)(C)O)c1)nn2[C@H]1CC[C@@H](Oc2ccccc2F)CC1 [Example 396, 1-(4-(1-((1s,4s)-4-(2-fluorophenoxy)cyclohexyl)-6-(methylamino)-1H-pyrazolo[4,3-c]pyridin-3-yl)-1H-pyrazol-1-yl)-2-methylpropan-2-ol]
IC50 [1]: < 10 nM | IC50 [2]: < 10 nM | IC50 [3]: 10 to 100 nM

CNc1cc2c(cn1)c(-c1cnn([C@H]3CCNC[C@@H]3F)c1)nn2[C@H]1CC[C@@H](Oc2ccccc2F)CC1 [Example 399, 1-((1s,4R)-4-(2-fluorophenoxy)cyclohexyl)-3-(1-((3S,4S)-3-fluoropiperidin-4-yl)-1H-pyrazol-4-yl)-N-methyl-1H-pyrazolo[4,3-c]pyridin-6-amine]
IC50 [1]: < 10 nM | IC50 [2]: < 10 nM | IC50 [3]: 10 to 100 nM

CNc1cc2c(cn1)c(-c1cnn(C(CO)CO)c1)nn2[C@H]1CC[C@@H](Oc2ccccc2F)CC1 [Example 408, 2-(4-(1-((1s,4s)-4-(2-fluorophenoxy)cyclohexyl)-6-(methylamino)-1H-pyrazolo[4,3-c]pyridin-3-yl)-1H-pyrazol-1-yl)propane-1,3-diol]
IC50 [1]: < 10 nM | IC50 [2]: < 10 nM | IC50 [3]: 10 to 100 nM

CNc1cc2c(cn1)c(-c1cnn(C(CO)CO)c1)nn2[C@H]1CC[C@@H](Oc2cccc(F)c2)CC1 [Example 409, 2-(4-(1-((1s,4s)-4-(3-fluorophenoxy)cyclohexyl)-6-(methylamino)-1H-pyrazolo[4,3-c]pyridin-3-yl)-1H-pyrazol-1-yl)propane-1,3-diol]
IC50 [1]: < 10 nM | IC50 [2]: < 10 nM | IC50 [3]: 10 to 100 nM

CNc1cc2c(cn1)c(-c1cnn(C(CO)CO)c1)nn2[C@H]1CC[C@@H](Oc2ccc(F)cc2)CC1 [Example 410, 2-(4-(1-((1s,4s)-4-(4-fluorophenoxy)cyclohexyl)-6-(methylamino)-1H-pyrazolo[4,3-c]pyridin-3-yl)-1H-pyrazol-1-yl)propane-1,3-diol]
IC50 [1]: < 10 nM | IC50 [2]: < 10 nM | IC50 [3]: 10 to 100 nM

CCNc1cc2c(cn1)c(-c1cnn(C(CO)CO)c1)nn2[C@H]1CC[C@@H](Oc2ccc(F)cc2F)CC1 [Example 414, 2-(4-(1-((1s,4s)-4-(2,4-difluorophenoxy)cyclohexyl)-6-(ethylamino)-1H-pyrazolo[4,3-c]pyridin-3-yl)-1H-pyrazol-1-yl)propane-1,3-diol]
IC50 [1]: < 10 nM | IC50 [2]: < 10 nM | IC50 [3]: 10 to 100 nM

CCNc1cc2c(cn1)c(-c1cnn(C(CO)CO)c1)nn2[C@H]1CC[C@@H](Oc2cccc(F)c2F)CC1 [Example 415, 2-(4-(1-((1s,4s)-4-(2,3-difluorophenoxy)cyclohexyl)-6-(ethylamino)-1H-pyrazolo[4,3-c]pyridin-3-yl)-1H-pyrazol-1-yl)propane-1,3-diol]
IC50 [1]: < 10 nM | IC50 [2]: < 10 nM | IC50 [3]: < 10 nM
